This passage reports EC50 and CC50 results from US12594276B2, “Inhibitors of human immunodeficiency virus replication” (ViiV Healthcare UK (No.5) Limited, priority 2024, dated 2026).

Series [1] has as its system recombinant NL4-3 virus (nef section replaced with Renilla luciferase gene) in MT-2 cells. The experiment in a line: HIV cell culture assay (antiviral activity, luciferase readout). It is filed as cell-based. The note with it: Renilla, NL43, MT-2 cells infected for 4-5 days with recombinant NL4-3 Renilla luciferase virus. The gist of the method:
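EC50 was derived by median-effect fitting of Renilla luciferase signal from MT-2 cells. These cells were infected for 4–5 days with NL4-3 reporter virus (nef partly replaced by luciferase; made in 293T cells) in the presence of serially diluted compound. Activity was quantified with a live-cell luciferase substrate.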

Series [2] can be described thus: Compound cytotoxicity, XTT-based colorimetric assay. It is filed as cell-based. The note with it: human; uninfected MT2 cells, day 4, XTT; read-out: CC50. An outline of the steps:
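Uninfected MT2 cells, antiviral-assay protocol without virus; XTT colorimetric readout day 4; CC50 reported.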
(Formazan colour is commonly taken as a measure of viable cells.)

The structures appear in SMILES notation.

The term EC50 denotes the concentration that produces a half-maximal response. By CC50 is commonly meant the concentration giving 50% cytotoxicity. Take `CC1(C)CN(CCn2nc(NS(C)(=O)=O)c3c(Cl)ccc(-n4c([C@H](Cc5cc(F)cc(F)c5)NC(=O)Cn5nc(C(F)F)c6c5C(F)(F)[C@@H]5C[C@H]65)nc5nc(C6CCC(F)(F)CC6)cc(CF)c5c4=O)c32)CC(C)(C)O1` (atropisomer, axis not shown; (P)) [Example 513, N-[(1S)-1-[(3P)-3-{4-chloro-3-methanesulfonamido-1-[2-(2,2,6,6-tetramethylmorpholin-4-yl)ethyl]-1H-indazol-7-yl}-7-(4,4-difluorocyclohexyl)-5-(fluoromethyl)-4-oxo-3H,4H-pyrido[2,3-d]pyrimidin-2-yl]-2-(3,5-difluorophenyl)ethyl]-2-[(2S,4R)-9-(difluoromethyl)-5,5-difluoro-7,8-diazatricyclo[4.3.0.0^2,^4]nona-1(6),8-dien-7-yl]acetamide]: the EC50 in series [1] is 0.017 nM. Further, the CC50 at 4 days in series [2] is more than 20 nM.
On the same counts, the results for `CS(=O)(=O)Nc1nn(CCN2CCC(F)(F)CC2)c2c(-n3c([C@H](Cc4cc(F)cc(F)c4)NC(=O)Cn4nc(C(F)F)c5c4C(F)(F)[C@@H]4C[C@H]54)nc4nc(C5CCC(F)(F)CC5)cc(CF)c4c3=O)ccc(Cl)c12` (atropisomer, axis not shown; (P)) [Example 514, N-[(1S)-1-[(3P)-3-{4-chloro-1-[2-(4,4-difluoropiperidin-1-yl)ethyl]-3-methanesulfonamido-1H-indazol-7-yl}-7-(4,4-difluorocyclohexyl)-5-(fluoromethyl)-4-oxo-3H,4H-pyrido[2,3-d]pyrimidin-2-yl]-2-(3,5-difluorophenyl)ethyl]-2-[(2S,4R)-9-(difluoromethyl)-5,5-difluoro-7,8-diazatricyclo[4.3.0.0^2,^4]nona-1(6),8-dien-7-yl]acetamide] are 0.014 nM and more than 20 nM.
The like results for `COCCCn1nc(NS(C)(=O)=O)c2c(Cl)ccc(-n3c([C@H](Cc4cc(F)cc(F)c4)NC(=O)Cn4nc(C(F)F)c5c4C(F)(F)[C@@H]4C[C@H]54)nc4nc(C5CCC(F)(F)CC5)cc(NCCN5CCC6(CC5)CC6)c4c3=O)c21` (atropisomer, axis not shown; (P)) [Example 515, N-[(1S)-1-[(3P)-5-[(2-{6-azaspiro[2.5]octan-6-yl}ethyl)amino]-3-[4-chloro-3-methanesulfonamido-1-(3-methoxypropyl)-1H-indazol-7-yl]-7-(4,4-difluorocyclohexyl)-4-oxo-3H,4H-pyrido[2,3-d]pyrimidin-2-yl]-2-(3,5-difluorophenyl)ethyl]-2-[(2S,4R)-9-(difluoromethyl)-5,5-difluoro-7,8-diazatricyclo[4.3.0.0^2,^4]nona-1(6),8-dien-7-yl]acetamide] were, in that order, 0.016 nM and more than 20 nM.
In the case of `COCCCn1nc(NS(C)(=O)=O)c2c(Cl)ccc(-n3c([C@H](Cc4cc(F)cc(F)c4)NC(=O)Cn4nc(C(F)F)c5c4C(F)(F)[C@@H]4C[C@H]54)nc4nc(C5CCC(F)(F)CC5)cc(NCCN5CC(F)(F)C5)c4c3=O)c21` (atropisomer, axis not shown; (P)) [Example 517, N-[(1S)-1-[(3P)-3-[4-chloro-3-methanesulfonamido-1-(3-methoxypropyl)-1H-indazol-7-yl]-5-{[2-(3,3-difluoroazetidin-1-yl)ethyl]amino}-7-(4,4-difluorocyclohexyl)-4-oxo-3H,4H-pyrido[2,3-d]pyrimidin-2-yl]-2-(3,5-difluorophenyl)ethyl]-2-[(2S,4R)-9-(difluoromethyl)-5,5-difluoro-7,8-diazatricyclo[4.3.0.0^2,^4]nona-1(6),8-dien-7-yl]acetamide], the EC50 in series [1] is 0.009 nM. Also, in series [2], the half-maximal cytotoxic concentration (CC50) at 4 days is more than 20 nM.
The like results for `COCCCn1nc(NS(C)(=O)=O)c2c(Cl)ccc(-n3c([C@H](Cc4cc(F)cc(F)c4)NC(=O)Cn4nc(C(F)F)c5c4C(F)(F)[C@@H]4C[C@H]54)nc4nc(C5CCC(F)(F)CC5)cc(NCCCN5CCCCC5)c4c3=O)c21` (atropisomer, axis not shown; (P)) [Example 519, N-[(1S)-1-[(3P)-3-[4-chloro-3-methanesulfonamido-1-(3-methoxypropyl)-1H-indazol-7-yl]-7-(4,4-difluorocyclohexyl)-4-oxo-5-{[3-(piperidin-1-yl)propyl]amino}-3H,4H-pyrido[2,3-d]pyrimidin-2-yl]-2-(3,5-difluorophenyl)ethyl]-2-[(2S,4R)-9-(difluoromethyl)-5,5-difluoro-7,8-diazatricyclo[4.3.0.0^2,^4]nona-1(6),8-dien-7-yl]acetamide] were, in that order, 0.024 nM and more than 20 nM.
On the same counts, the results for `COCCCn1nc(NS(C)(=O)=O)c2c(Cl)ccc(-n3c([C@H](Cc4cc(F)cc(F)c4)NC(=O)Cn4nc(C(F)F)c5c4C(F)(F)[C@@H]4C[C@H]54)nc4nc(C5CCC(F)(F)CC5)cc(NCCc5ccccc5)c4c3=O)c21` (atropisomer, axis not shown; (P)) [Example 521, N-[(1S)-1-[(3P)-3-[4-chloro-3-methanesulfonamido-1-(3-methoxypropyl)-1H-indazol-7-yl]-7-(4,4-difluorocyclohexyl)-4-oxo-5-[(2-phenylethyl)amino]-3H,4H-pyrido[2,3-d]pyrimidin-2-yl]-2-(3,5-difluorophenyl)ethyl]-2-[(2S,4R)-9-(difluoromethyl)-5,5-difluoro-7,8-diazatricyclo[4.3.0.0^2,^4]nona-1(6),8-dien-7-yl]acetamide] are 0.079 nM and more than 20 nM.
In the case of `COCCCn1nc(NS(C)(=O)=O)c2c(Cl)ccc(-n3c([C@H](Cc4cc(F)cc(F)c4)NC(=O)Cn4nc(C(F)F)c5c4C(F)(F)[C@@H]4C[C@H]54)nc4nc(C5CCC(F)(F)CC5)cc(NCCN(C)C)c4c3=O)c21` (atropisomer, axis not shown; (P)) [Example 522, N-[(1S)-1-[(3P)-3-[4-chloro-3-methanesulfonamido-1-(3-methoxypropyl)-1H-indazol-7-yl]-7-(4,4-difluorocyclohexyl)-5-{[2-(dimethylamino)ethyl]amino}-4-oxo-3H,4H-pyrido[2,3-d]pyrimidin-2-yl]-2-(3,5-difluorophenyl)ethyl]-2-[(2S,4R)-9-(difluoromethyl)-5,5-difluoro-7,8-diazatricyclo[4.3.0.0^2,^4]nona-1(6),8-dien-7-yl]acetamide], the EC50 in series [1] came to 0.014 nM. For the same compound, the CC50 at 4 days in series [2] was more than 20 nM.
The like results for `COCCCn1nc(NS(C)(=O)=O)c2c(Cl)ccc(-n3c([C@H](Cc4cc(F)cc(F)c4)NC(=O)Cn4nc(C(F)F)c5c4C(F)(F)[C@@H]4C[C@H]54)nc4nc(C5CCC(F)(F)CC5)cc(NCCN5CCC(C)(C)CC5)c4c3=O)c21` (atropisomer, axis not shown; (P)) [Example 523, N-[(1S)-1-[(3P)-3-[4-chloro-3-methanesulfonamido-1-(3-methoxypropyl)-1H-indazol-7-yl]-7-(4,4-difluorocyclohexyl)-5-{[2-(4,4-dimethylpiperidin-1-yl)ethyl]amino}-4-oxo-3H,4H-pyrido[2,3-d]pyrimidin-2-yl]-2-(3,5-difluorophenyl)ethyl]-2-[(2S,4R)-9-(difluoromethyl)-5,5-difluoro-7,8-diazatricyclo[4.3.0.0^2,^4]nona-1(6),8-dien-7-yl]acetamide] were, in that order, 0.012 nM and more than 20 nM.
On the same counts, the results for `C[C@@H]1CN(Cc2cc(C3CCC(F)(F)CC3)nc3nc([C@H](Cc4cc(F)cc(F)c4)NC(=O)Cn4nc(C(F)F)c5c4C(F)(F)[C@@H]4C[C@H]54)n(-c4ccc(Cl)c5c(NS(C)(=O)=O)nn(CCN6CCC(F)(F)CC6)c45)c(=O)c23)C[C@H](C)O1` (atropisomer, axis not shown; (P)) [Example 525, N-[(1S)-1-[(3P)-3-{4-chloro-1-[2-(4,4-difluoropiperidin-1-yl)ethyl]-3-methanesulfonamido-1H-indazol-7-yl}-7-(4,4-difluorocyclohexyl)-5-{[(2R,6S)-2,6-dimethylmorpholin-4-yl]methyl}-4-oxo-3H,4H-pyrido[2,3-d]pyrimidin-2-yl]-2-(3,5-difluorophenyl)ethyl]-2-[(2S,4R)-9-(difluoromethyl)-5,5-difluoro-7,8-diazatricyclo[4.3.0.0^2,^4]nona-1(6),8-dien-7-yl]acetamide] are 0.016 nM and more than 20 nM.
The like results for `C[C@@H]1CN(Cc2cc(C3CCC(F)(F)CC3)nc3nc([C@H](Cc4cc(F)cc(F)c4)NC(=O)Cn4nc(C(F)F)c5c4C(F)(F)[C@@H]4C[C@H]54)n(-c4ccc(Cl)c5c(NS(C)(=O)=O)nn(CCN6C[C@H](F)C[C@H](F)C6)c45)c(=O)c23)C[C@H](C)O1` (atropisomer, axis not shown; (P)) [Example 526, N-[(1S)-1-[(3P)-3-(4-chloro-1-{2-[(3R,5S)-3,5-difluoropiperidin-1-yl]ethyl}-3-methanesulfonamido-1H-indazol-7-yl)-7-(4,4-difluorocyclohexyl)-5-{[(2R,6S)-2,6-dimethylmorpholin-4-yl]methyl}-4-oxo-3H,4H-pyrido[2,3-d]pyrimidin-2-yl]-2-(3,5-difluorophenyl)ethyl]-2-[(2S,4R)-9-(difluoromethyl)-5,5-difluoro-7,8-diazatricyclo[4.3.0.0^2,^4]nona-1(6),8-dien-7-yl]acetamide] were, in that order, 0.014 nM and more than 20 nM.
